From ChEMBL document CHEMBL1158278, “New macrocyclic spermine (budmunchiamine) alkaloids from Albizia gummifera: with some observations on the structure--activity relationships of the budmunchiamines” (J Nat Prod, 1996)
Converted amounts (≈) assume the structure as drawn.

Key:
Staphylococcus aureus [1] = test: Antibacterial activity against Staphylococcus aureus NCTC 6751 at 50 ug/disk; assay type: functional; details: read-out: IZ
Escherichia coli [2] = test: Antibacterial activity against Escherichia coli NCTC 9001; assay type: functional
Staphylococcus aureus [3] = test: Antibacterial activity against Staphylococcus aureus NCTC 6751; assay type: functional
[4] = Toxicity against brine shrimp; assay type: organism-based; details: artemia, in vivo
Pseudomonas aeruginosa [5] = test: Antibacterial activity against Pseudomonas aeruginosa NCTC 6750 at 50 ug/disk; assay type: functional; details: read-out: IZ
Pseudomonas aeruginosa [6] = test: Antibacterial activity against Pseudomonas aeruginosa NCTC 6750; assay type: functional
Escherichia coli [7] = test: Antibacterial activity against Escherichia coli NCTC 9001 at 50 ug/disk; assay type: functional; details: read-out: IZ
Bacillus subtilis [8] = test: Antibacterial activity against Bacillus subtilis NCTC 8326 at 50 ug/disk; assay type: functional; details: read-out: IZ
Bacillus subtilis [9] = test: Antibacterial activity against Bacillus subtilis NCTC 8326; assay type: functional

With `CCCCCCCCCCCCCCCC1CC(=O)NCCCN(C)CCCCN(C)CCCN1` (configuration not stated) the zone of inhibition at 50 µg/disc (Staphylococcus aureus [1]) was 12 mm, the MIC (Escherichia coli [2]) was 27 µg/mL (≈ 54.6 µM) and the MIC (Staphylococcus aureus [3]) was 15 µg/mL (≈ 30.3 µM). The LC50 [4] was 16.5 µg/mL (≈ 33.3 µM), the zone of inhibition at 50 µg/disc (Pseudomonas aeruginosa [5]) was 10 mm and the MIC (Pseudomonas aeruginosa [6]) was 32 µg/mL (≈ 64.7 µM). For the same molecule, the zone of inhibition at 50 µg/disc (Escherichia coli [7]) was 10 mm, the zone of inhibition at 50 µg/disc (Bacillus subtilis [8]) was 11 mm and the MIC (Bacillus subtilis [9]) was 20 µg/mL (≈ 40.4 µM).
Work on `CCCCCCCCCCCCCC1CC(=O)NCCCN(C)CCCCN(C)CCCN1` (configuration not stated) [BUDMUNCHIAMINE G] yielded a zone of inhibition at 50 µg/disc (Staphylococcus aureus [1]) of 10 mm, an MIC (Escherichia coli [2]) of 30 µg/mL (≈ 64.3 µM) and an MIC (Staphylococcus aureus [3]) of 18 µg/mL (≈ 38.6 µM). The LC50 [4] was 12.3 µg/mL (≈ 26.3 µM), the zone of inhibition at 50 µg/disc (Pseudomonas aeruginosa [5]) was 9 mm and the MIC (Pseudomonas aeruginosa [6]) was 35 µg/mL (≈ 75 µM). It also gave a zone of inhibition at 50 µg/disc (Escherichia coli [7]) of 10 mm, a zone of inhibition at 50 µg/disc (Bacillus subtilis [8]) of 12 mm and an MIC (Bacillus subtilis [9]) of 24 µg/mL (≈ 51.4 µM).
In the case of `O=C(N[C@H](CO)[C@H](O)c1ccc([N+](=O)[O-])cc1)C(Cl)Cl` [CHLORAMPHENICOL], the zone of inhibition at 50 µg/disc (Staphylococcus aureus [1]) is reported as 24 mm, the MIC (Escherichia coli [2]) is reported as 12 µg/mL (≈ 37.1 µM) and the MIC (Staphylococcus aureus [3]) is reported as 7 µg/mL (≈ 21.7 µM). It also gave a zone of inhibition at 50 µg/disc (Pseudomonas aeruginosa [5]) of 17 mm, an MIC (Pseudomonas aeruginosa [6]) of 26 µg/mL (≈ 80.5 µM) and a zone of inhibition at 50 µg/disc (Escherichia coli [7]) of 26 mm. For the same molecule, the zone of inhibition at 50 µg/disc (Bacillus subtilis [8]) was 31 mm and the MIC (Bacillus subtilis [9]) was 7 µg/mL (≈ 21.7 µM).
`CCCCCCCCCC(O)CCCCCC1CC(=O)NCCCN(C)CCCCN(C)CCCN1` (configuration not stated) gave a zone of inhibition at 50 µg/disc (Staphylococcus aureus [1]) of 9 mm, an LC50 [4] of 60.4 µg/mL (≈ 118 µM) and a zone of inhibition at 50 µg/disc (Pseudomonas aeruginosa [5]) of 7 mm. It also gave a zone of inhibition at 50 µg/disc (Escherichia coli [7]) of 7 mm and a zone of inhibition at 50 µg/disc (Bacillus subtilis [8]) of 9 mm.
With `CCCCCCCCCCCC1CC(=O)NCCCN(C)CCCCN(C)CCCN1C` (configuration not stated) [BUDMUNCHIAMINE A] the zone of inhibition at 50 µg/disc (Staphylococcus aureus [1]) was 10 mm, the MIC (Escherichia coli [2]) was 25 µg/mL (≈ 55.2 µM) and the MIC (Staphylococcus aureus [3]) was 18 µg/mL (≈ 39.8 µM). For the same molecule, the LC50 [4] was 4 µg/mL (≈ 8.83 µM), the zone of inhibition at 50 µg/disc (Pseudomonas aeruginosa [5]) was 10 mm and the MIC (Pseudomonas aeruginosa [6]) was 30 µg/mL (≈ 66.3 µM). It also gave a zone of inhibition at 50 µg/disc (Escherichia coli [7]) of 11 mm, a zone of inhibition at 50 µg/disc (Bacillus subtilis [8]) of 11 mm and an MIC (Bacillus subtilis [9]) of 15 µg/mL (≈ 33.1 µM).
`CCCCCCCCCC(O)CCCCCC1CC(=O)NCCCN(C)CCCCN(C)CCCN1C` (configuration not stated) gave a zone of inhibition at 50 µg/disc (Staphylococcus aureus [1]) of 9 mm, an MIC (Escherichia coli [2]) of 64 µg/mL (≈ 122 µM) and an MIC (Staphylococcus aureus [3]) of 30 µg/mL (≈ 57.2 µM). It also gave an LC50 [4] of 69.1 µg/mL (≈ 132 µM), a zone of inhibition at 50 µg/disc (Pseudomonas aeruginosa [5]) of 8 mm and an MIC (Pseudomonas aeruginosa [6]) of 75 µg/mL (≈ 143 µM). For the same molecule, the zone of inhibition at 50 µg/disc (Escherichia coli [7]) was 7 mm, the zone of inhibition at 50 µg/disc (Bacillus subtilis [8]) was 8 mm and the MIC (Bacillus subtilis [9]) was 42 µg/mL (≈ 80 µM).
`CCCCCCCC(O)CCCCCC1CC(=O)NCCCN(C)CCCCN(C)CCCN1C` (configuration not stated) showed a zone of inhibition at 50 µg/disc (Staphylococcus aureus [1]) of 8 mm, an MIC (Escherichia coli [2]) of 72 µg/mL (≈ 145 µM) and an MIC (Staphylococcus aureus [3]) of 35 µg/mL (≈ 70.4 µM). For the same molecule, the LC50 [4] was 79.7 µg/mL (≈ 160 µM), the zone of inhibition at 50 µg/disc (Pseudomonas aeruginosa [5]) was 7 mm and the MIC (Pseudomonas aeruginosa [6]) was 84 µg/mL (≈ 169 µM). It also gave a zone of inhibition at 50 µg/disc (Escherichia coli [7]) of 7 mm, a zone of inhibition at 50 µg/disc (Bacillus subtilis [8]) of 8 mm and an MIC (Bacillus subtilis [9]) of 45 µg/mL (≈ 90.6 µM).
For `CCCCCCCCCCCCCCCC1CC(=O)NCCCN(C)CCCCN(C)CCCN1C` (configuration not stated) [BUDMUNCHIAMINE K], the zone of inhibition at 50 µg/disc (Staphylococcus aureus [1]) was 11 mm, the MIC (Escherichia coli [2]) was 24 µg/mL (≈ 47.2 µM) and the MIC (Staphylococcus aureus [3]) was 15 µg/mL (≈ 29.5 µM). For the same molecule, the LC50 [4] was 6.6 µg/mL (≈ 13 µM), the zone of inhibition at 50 µg/disc (Pseudomonas aeruginosa [5]) was 11 mm and the MIC (Pseudomonas aeruginosa [6]) was 28 µg/mL (≈ 55 µM). For the same molecule, the zone of inhibition at 50 µg/disc (Escherichia coli [7]) was 11 mm, the zone of inhibition at 50 µg/disc (Bacillus subtilis [8]) was 10 mm and the MIC (Bacillus subtilis [9]) was 19 µg/mL (≈ 37.3 µM).
Work on `CCCCCCCCCCCCCCCC1CC(=O)NCCCNCCCCN(C)CCCN1C` (configuration not stated) yielded a zone of inhibition at 50 µg/disc (Staphylococcus aureus [1]) of 11 mm, an LC50 [4] of 18.2 µg/mL (≈ 36.8 µM) and a zone of inhibition at 50 µg/disc (Pseudomonas aeruginosa [5]) of 10 mm. For the same molecule, the zone of inhibition at 50 µg/disc (Escherichia coli [7]) was 9 mm and the zone of inhibition at 50 µg/disc (Bacillus subtilis [8]) was 10 mm.
`CCCCCCCCCCCCCCCC1CC(=O)NCCCN(C)CCCCNCCCN1C` (configuration not stated) gave a zone of inhibition at 50 µg/disc (Staphylococcus aureus [1]) of 11 mm, an LC50 [4] of 15.9 µg/mL (≈ 32.1 µM) and a zone of inhibition at 50 µg/disc (Pseudomonas aeruginosa [5]) of 9 mm. The zone of inhibition at 50 µg/disc (Escherichia coli [7]) was 9 mm and the zone of inhibition at 50 µg/disc (Bacillus subtilis [8]) was 10 mm.
